Where a name gives a salt, the structure may show the parent alone.
Columns and labels:
myeloperoxidase [1] = target: T1, myeloperoxidase (Homo sapiens, UniProt P05164); assay: MPO Peroxidation Assay (Amplex Red Assay); assay type: biochemical; details: potency range class, read-out: Amplex Red Assay IC50 value
T1 sequence (P05164 49-745): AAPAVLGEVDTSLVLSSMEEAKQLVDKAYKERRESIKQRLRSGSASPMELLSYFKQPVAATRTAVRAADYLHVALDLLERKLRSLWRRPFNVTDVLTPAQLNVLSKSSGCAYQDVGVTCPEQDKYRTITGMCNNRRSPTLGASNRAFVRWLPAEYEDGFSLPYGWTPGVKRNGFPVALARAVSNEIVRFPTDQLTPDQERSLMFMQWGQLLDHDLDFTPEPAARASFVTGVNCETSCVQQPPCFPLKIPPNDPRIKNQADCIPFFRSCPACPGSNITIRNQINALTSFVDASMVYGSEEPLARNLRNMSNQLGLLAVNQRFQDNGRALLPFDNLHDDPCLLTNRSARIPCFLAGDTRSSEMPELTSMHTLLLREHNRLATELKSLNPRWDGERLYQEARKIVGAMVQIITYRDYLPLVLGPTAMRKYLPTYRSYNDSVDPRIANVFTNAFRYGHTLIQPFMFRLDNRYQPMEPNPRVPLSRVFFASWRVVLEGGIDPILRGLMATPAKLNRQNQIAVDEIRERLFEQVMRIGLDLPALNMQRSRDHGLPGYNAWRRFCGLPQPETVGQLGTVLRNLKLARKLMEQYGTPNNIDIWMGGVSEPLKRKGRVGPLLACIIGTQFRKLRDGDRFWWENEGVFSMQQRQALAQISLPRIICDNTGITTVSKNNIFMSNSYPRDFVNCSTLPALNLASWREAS

myeloperoxidase [2] = target: T1, myeloperoxidase; assay: MPO Chlorination Assay (APF Assay); assay type: biochemical; details: potency range class, read-out: APF Assay IC50 value

SMILES | IC50 (myeloperoxidase [1]) [nM] | IC50 (myeloperoxidase [2]) [nM]
CC1(NCCC(c2ccccc2)c2cc(N)nc3[nH]nnc23)CCC(c2ccccc2)CC1 (mixture of isomers) [Example 143, 7-{3-[(1-methyl-4-phenylcyclohexyl)amino]-1-phenylpropyl}-3H-[1,2,3]triazolo[4,5-b]pyridin-5-amine] | 101 to 999 | 101 to 999
CC(c1cccc(F)c1)c1cc(N)nc2[nH]nnc12 (racemic) [Example 30, 7-(1-(3-fluorophenyl)ethyl)-3H-[1,2,3]triazolo[4,5-b]pyridin-5-amine] | 1 to 100 | 101 to 999
Nc1cc(C(Cc2ccccc2F)c2ccccc2)c2nn[nH]c2n1 (single isomer, unassigned) [Example 9, 7-(2-(2-fluorophenyl)-1-phenylethyl)-3H-[1,2,3]triazolo[4,5-b]pyridin-5-amine] | 101 to 999 | 101 to 999
Nc1cc(C(Cc2ccccc2)c2ccccc2F)c2nn[nH]c2n1 (single isomer, unassigned) [Example 10, 7-(1-(2-fluorophenyl)-2-phenylethyl)-3H-[1,2,3]triazolo[4,5-b]pyridin-5-amine] | 1 to 100 | 1 to 100
CC(NCCC(c1ccccc1)c1cc(N)nc2[nH]nnc12)c1ccccc1 (single isomer, unassigned) [Example 12, 7-(1-phenyl-3-((1-phenylethyl)amino)propyl)-3H-[1,2,3]triazolo[4,5-b]pyridin-5-amine] | 101 to 999 | 101 to 999
Nc1cc(C(CCNC2CC(c3ccccc3)C2)c2ccccc2)c2nn[nH]c2n1 (single isomer, unassigned) [Example 80, 7-{1-phenyl-3-[(3-phenylcyclobutyl)amino]propyl}-3H-[1,2,3]triazolo[4,5-b] pyridin-5-amine] | 101 to 999 | 1 to 100
Nc1cc(C(CCNC2CC(c3ccccc3)C2)c2ccccc2)c2nn[nH]c2n1 (single isomer, unassigned) [Example 81, 7-{1-phenyl-3-[(3-phenylcyclobutyl)amino]propyl}-3H-[1,2,3]triazolo[4,5-b] pyridin-5-amine] | 1000 to 10000 | 1 to 100
Nc1cc(C(CCOC2CCc3ccccc32)c2ccccc2)c2nn[nH]c2n1 (single isomer, unassigned) [Example 231, 7-(3-((2,3-dihydro-1H-inden-1-yl)oxy)-1-phenylpropyl)-3H-[1,2,3]triazolo[4,5-b]pyridin-5-amine] | 101 to 999 | 101 to 999
CN(CC[C@H](c1ccccc1)c1cc(N)nc2[nH]nnc12)[C@H]1CC[C@H](c2ccccc2)CC1 (stereo in doubt) [Example 178, 7-(3-(methyl(4-phenylcyclohexyl)amino)-1-phenylpropyl)-3H-[1,2,3]triazolo[4,5-b]pyridin-5-amine] | 101 to 999 | 1 to 100
CC(C)(NCCC(c1ccccc1)c1cc(N)nc2[nH]nnc12)c1ccccc1 (stereo not shown) [Example 14, 7-{1-phenyl-3-[(2-phenylpropan-2-yl)amino]propyl}-3H-[1,2,3]triazolo[4,5-b]pyridin-5-amine] | 101 to 999 | 101 to 999
Nc1cc(C(CCNS(=O)(=O)c2ccccc2)c2ccccc2)c2nn[nH]c2n1 (stereo not shown) [Example 15, N-(3-(5-amino-3H-[1,2,3]triazolo[4,5-b]pyridin-7-yl)-3-phenylpropyl)benzenesulfonamide, TFA] | 1 to 100 | 101 to 999
Nc1cc(C(CCNCc2ccc3ccccc3c2)c2ccccc2)c2nn[nH]c2n1 (stereo not shown) [Example 16, 7-(3-{[(naphthalen-2-yl)methyl]amino}-1-phenylpropyl)-3H-[1,2,3]triazolo[4,5-b] pyridin-5-amine] | 101 to 999 | 1 to 100
Nc1cc(C(CCNCc2cccc3ccccc23)c2ccccc2)c2nn[nH]c2n1 (stereo not shown) [Example 17, 7-(3-((naphthalen-1-ylmethyl)amino)-1-phenylpropyl)-3H-[1,2,3]triazolo[4,5-b]pyridin-5-amine] | 101 to 999 | 1 to 100
CC(C)(C)CNCCC(c1ccccc1)c1cc(N)nc2[nH]nnc12 (stereo not shown) [Example 20, 7-{3-[(2,2-dimethylpropyl)amino]-1-phenylpropyl}-3H-[1,2,3]triazolo[4,5-b]pyridin-5-amine] | 101 to 999 | 1000 to 10000
Nc1cc(C(CCNC23CC4CC(CC(C4)C2)C3)c2ccccc2)c2nn[nH]c2n1 (stereo not shown) [Example 21, 7-{3-[(adamantan-1-yl)amino]-1-phenylpropyl}-3H-[1,2,3]triazolo[4,5-b]pyridin-5-amine] | 101 to 999 | 101 to 999
Nc1cc(C(CCNCC23CC4CC(CC(C4)C2)C3)c2ccccc2)c2nn[nH]c2n1 (stereo not shown) [Example 22, 7-(3-{[(adamantan-1-yl)methyl]amino}-1-phenylpropyl)-3H-[1,2,3]triazolo[4,5-b] pyridin-5-amine] | 101 to 999 | 101 to 999

SMILES | IC50 (myeloperoxidase [1]) [nM] | IC50 (myeloperoxidase [2]) [nM]
Nc1cc(C(CCNCC2CCCCC2)c2ccccc2)c2nn[nH]c2n1 (stereo not shown) [Example 23, 7-{3-[(cyclohexylmethyl)amino]-1-phenylpropyl}-3H-[1,2,3]triazolo[4,5-b] pyridin-5-amine] | 101 to 999 | 101 to 999
Nc1cc(C(CCNC(c2ccccc2)C(F)(F)F)c2ccccc2)c2nn[nH]c2n1 (stereo not shown) [Example 24, 7-{1-phenyl-3-[(2,2,2-trifluoro-1-phenylethyl)amino]propyl}-3H-[1,2,3]triazolo[4,5-b]pyridin-5-amine] | 101 to 999 | 1000 to 10000
Nc1cc(C(CCNC2CCCc3ccccc32)c2ccccc2)c2nn[nH]c2n1 (stereo not shown) [Example 25, 7-{1-phenyl-3-[(1,2,3,4-tetrahydronaphthalen-1-yl)amino]propyl}-3H-[1,2,3] triazolo[4,5-b] pyridin-5-amine] | 101 to 999 | 1 to 100
Cc1cccc(C)c1CNCCC(c1ccccc1)c1cc(N)nc2[nH]nnc12 (stereo not shown) [Example 27, 7-(3-{[(2,6-dimethylphenyl)methyl]amino}-1-phenylpropyl)-3H-[1,2,3]triazolo[4,5-b] pyridin-5-amine] | 101 to 999 | 101 to 999
Nc1cc(C(CCNC2CCCc3ccccc32)c2ccccc2)c2nn[nH]c2n1 (stereo not shown) [Example 28, 7-{1-phenyl-3-[(1,2,3,4-tetrahydronaphthalen-1-yl)amino]propyl}-3H-[1,2,3]triazolo [4,5-b]pyridin-5-amine] | 1 to 100 | 1 to 100
Nc1cc(C(CCNC2CCCc3ccccc32)c2ccccc2)c2nn[nH]c2n1 (stereo not shown) [Example 29, 7-{1-phenyl-3-[(1,2,3,4-tetrahydronaphthalen-1-yl)amino]propyl}-3H-[1,2,3]triazolo [4,5-b]pyridin-5-amine] | 1 to 100 | 1 to 100
Nc1cc(C(Cc2ccccn2)c2ccccc2)c2nn[nH]c2n1 (stereo not shown) [Example 38, 7-(1-phenyl-2-(pyridin-2-yl)ethyl)-3H-[1,2,3]triazolo[4,5-b]pyridin-5-amine] | 101 to 999 | 101 to 999
Nc1cc(C(CCNC(=O)c2ccccc2)c2ccccc2)c2nn[nH]c2n1 (stereo not shown) [Example 39, N-(3-(5-amino-3H-[1,2,3]triazolo[4,5-b]pyridin-7-yl)-3-phenylpropyl)benzamide] | 101 to 999 | 1000 to 10000
Nc1cc(C(CCNC2Cc3ccccc3C2)c2ccccc2)c2nn[nH]c2n1 (stereo not shown) [Example 41, 7-{3-[(2,3-dihydro-1H-inden-2-yl)amino]-1-phenylpropyl}-3H-[1,2,3]triazolo[4,5-b]pyridin-5-amine] | 101 to 999 | 101 to 999
Nc1cc(C(CCNC(Cc2ccccc2)c2ccccc2)c2ccccc2)c2nn[nH]c2n1 (stereo not shown) [Example 45, 7-{3-[(1,2-diphenylethyl)amino]-1-phenylpropyl}-3H-[1,2,3]triazolo[4,5-b] pyridin-5-amine] | 101 to 999 | 101 to 999
Nc1cc(C(CCNC2c3ccccc3CC2c2ccccc2)c2ccccc2)c2nn[nH]c2n1 (stereo not shown) [Example 46, 7-{1-phenyl-3-[(2-phenyl-2,3-dihydro-1H-inden-1-yl)amino]propyl}-3H-[1,2,3]triazolo [4,5-b]pyridin-5-amine] | 101 to 999 | 101 to 999
CC1CC(NCCC(c2ccccc2)c2cc(N)nc3[nH]nnc23)CCN1c1ccccc1 (stereo not shown) [Example 131, N-(3-{5-amino-3H-[1,2,3]triazolo[4,5-b]pyridin-7-yl}-3-phenylpropyl)-2-methyl-1-phenylpiperidin-4-amine] |  | 1 to 100
COC(=O)c1cccc(C(CCN[C@H]2CC[C@H](c3ccccc3)CC2)c2cc(N)nc3[nH]nnc23)c1 (stereo partly drawn) [Example 163, methyl 3-(1-{5-amino-3H-[1,2,3]triazolo [4,5-b]pyridin-7-yl}-3-{[(trans)-4-phenylcyclohexyl]amino}propyl) benzoate] |  | 1 to 100
NC(=O)CN(CC[C@H](c1ccccc1)c1cc(N)nc2[nH]nnc12)[C@H]1CC[C@H](c2ccccc2)CC1 [Example 189, 2-{[(3R)-3-{5-amino-3H-[1,2,3]triazolo [4,5-b]pyridin-7-yl}-3-phenylpropyl] [(trans)-4-phenylcyclohexyl]amino}acetamide] |  | 1 to 100
Nc1cc(C(Cc2ccc(CO)cc2)c2ccccc2)c2nn[nH]c2n1 (stereo not shown) [Example 224, (4-(2-(5-amino-3H-[1,2,3]triazolo[4,5-b]pyridin-7-yl)-2-phenylethyl)phenyl)methanol] | 1 to 100 | 

From patent publication US11008317B2, “Triazolopyridine inhibitors of myeloperoxidase and/or EPX” (priority 2016, dated 2021)
